Data as given in patent US5652222A, “Selective inhibition of leukemic cell proliferation by bcr-abl antisense oligonucleotides” (Temple University-of The Commonwealth System of Higher …, priority 1993, dated 1997).
Entries after “also recorded” stand apart in the source; their conditions may differ.

What was measured:
[1] = test system: BV173 cells (b2/a2); assay: Proliferation of BV173 cells expressing b2a2 junction; type: cell-based, human; details: in comparison to untreated control cells (FIG. 7)
Protocol: Amplification of the bcr-abl junction with a 5' primer corresponding to bcr exon 2, and a 3' primer corresponding to abl exon 2, followed by hybridization to an 18-mer specific for the b2/a2 or the b3/a2 junction identified the b2/a2 breakpoint in these cells (data not shown).
The sensitivity of the BV173 cells to b2/a2 antisense phosphorothioate oligodeoxynucleotides was assessed. Phosphorothioate oligodeoxynucleotides were prepared on either an Applied Biosystems Model 380B or 390Z Automated Synthesis instrument using conventional phosphoramidite monomers and manufacturer-recommended procedures, which included substitution of tetraethylthiuran (or an equivalent sulfur-donor reagent) for iodine-water-pyridine, […] reversed-phase preparative chromatography, detritylation, and obtaining the final product in the form of its sodium salt, all according to previously published methodology: Zon and Stec, in Oligonucleotides and Analogues A Practical Approach, F. Eckstein, Ed. (Oxford Univerisity Press, Oxford 1991), pp. 87-108; Zon and Geiser, Anti-Cancer Drug Design 6, 539 (1991); Vu and Hirschenbein, Tetrahedron Lett. 32, 3005-3008 (1991).
BV173 cells were cultured in the presence of phosphorothioate b2/a2 antisense 26-mer CGCTGAAGGG CTTCTTCCT ATTGAT (SEQ ID NO:29), the phosphorothioate sense sequence ATCAATAAGGAAGCCCTTCAGCG (SEQUENCE ID NO:34), or the b3/a2 (SEQ ID NO:31) or b1/a2 (SEQ ID N0:33) phosphorothioate antisense 26-mer. […] The sense oligomer SEQ ID NO:34 gave no inhibition (FIG. 7, -.largecircle.-) in comparison to untreated control cells (FIG. 7, -.quadrature.-).

[2] = test system: nucleic acid synthesis in both normal and leukemic cells; details: cited from earlier work
[3] = test system: CML chronic phase; details: cited from earlier work; for control of the excessive granulopoiesis of CML: human, in vivo; for median survival: standard approach to treatment of CML chronic phase
[4] = test system: chronic phase CML; details: cited from earlier work
[5] = test system: cells of CML patients in blast crisis, K-28 (b3a2) type junction; assay: Colony formation of CML blast crisis patient cells expressing the b3a2 (K-28) junction; type: cell-based, human; details: for Number of Colonies, Antisense-treated: conditions of Example 1
Description: To identify CML blast crisis patients carrying the second common type junction, in which bcr exon 3 is juxtaposed to c-abl exon 2, total RNA derived from cells of CML patients in blast crisis was reverse-transcribedwith synthetic primers. The 3' primer (SEQ ID NO:10) was complementary to 22 nucleotides of c-abl. exon 2. The 5' primer was the 22-mer GTCATCGTCCACTCAGCCACTG (SEQ ID NO:12) complementary to 22 nucleotides of bcr exon 3. The RNA was amplified by polymerase chain reaction according to Example 1. The amplification products were then hybridized with the synthetic 18-mer oligonucleotide GAAGGGCTTT TGAACTCT (SEQ ID NO:6), which is complementary to the b3a2 junction. After cloning of breakpoints in two patients, sequence analysis of several clones identified the b3a2 junction as precisely corresponding to the K-28 breakpoint shown in FIG. 3. (SEQ ID NO:4).
Utilizing the culture condition and oligomer treatment conditions of Example 1, cells were exposed to either no oligomer (FIG. 4A), the 18-nucleotide synthetic oligomer GAAGTGCTGT TGAACTCT (SEQ ID NO:5) partially complementary to the b3a2 junction, containing 9 nucleotides corresponding to bcr and 9 nucleotides corresponding to c-abl but with two mismatches (FIG. 4B); or the 18-nucleotide synthetic oligomer GAAGGGCTTT TGAACTCT (SEQ ID NO:6) completely complementary to the same bcr-abl junction (FIG. 4C).

[6] = alpha-interferon treated CML patients

Compound	inhibition of proliferation of BV173 cells [1]	inhibition of nucleic acid synthesis [2]	control of the excessive granulopoiesis of CML [3]	median survival [3]	also measured
SEQ ID NO:33: b1/a2 phosphorothioate antisense 26-mer CGCTGAAGGGCTT CTGCGTCTCCATG (antisense CGCTGAAGGGCTTCTGCGTCTCCATG; all phosphorothioate, sugars by position and methylation of C not given here)	Only the b2/a2 antisense oligodeoxynucleotide inhibited the proliferation of BV173 cells				
CS(=O)(=O)OCCCCOS(C)(=O)=O [busulfan]		inhibit nucleic acid synthesis in both normal and leukemic cells; also recorded: inhibit nucleic acid synthesis both in normal and leukemic cells	useful in the control of the excessive granulopoiesis of CML	about 47 months	
Alpha-interferon					patients with normalization of the blood count ([4]; 3-9 million units intramuscularly each day, chronic phase CML): about three quarters; side effects ([4]; CML patients): fever, anorexia, muscle and bone pain, depression, and often immune thrombocytopenia; patients with a decrease in Ph1-chromosome-containing metaphases [4, 6]: more than one third; treated patients having fewer than 5% Ph1-positive cells [4, 6]: about 15%; specificity of effect on leukemic clone ([4]; human, in vivo): non-specific, as indicated by the persistence of Ph^1 leukemic cells and the inhibition of normal hematopoietic cell growth
NC(=O)NO [hydroxyurea]		inhibit nucleic acid synthesis in both normal and leukemic cells; also recorded: inhibit nucleic acid synthesis both in normal and leukemic cells	useful in the control of the excessive granulopoiesis of CML	about 47 months	
SEQ ID NO:31: b3/a2 phosphorothioate antisense 26-mer CGCTGAAGGGCTT TTGAA&TCTGCTT (antisense CGCTGAAGGGCTTTTGAACTCTGCTT; all phosphorothioate, sugars by position and methylation of C not given here)	Only the b2/a2 antisense oligodeoxynucleotide inhibited the proliferation of BV173 cells				
SEQ ID NO:6: 18-nucleotide synthetic oligomer GAAGGGCTTT TGAACTCT completely complementary to the b3a2 (K-28) junction (antisense GAAGGGCTTTTGAACTCT; further chemistry not given here)					Number of Colonies, Antisense-treated ([5]; Table 2, patient 1, untreated 278 ± 28): 102 ± 14 colonies; Number of Colonies, Antisense-treated ([5]; Table 2, patient 2, untreated 182 ± 18): 68 ± 12 colonies; % Inhibition ([5]; Table 2, patient 2, number of colonies vs untreated): 63%
